This note sets out measurements from article PMC12111648, “New Dimethoxyaryl-Sesquiterpene Derivatives with Cytotoxic Activity Against MCF-7 Breast Cancer Cells: From Synthesis to Topoisomerase I/II Inhibition and Cell Death Mechanism Studies” (International Journal of Molecular Sciences, 2025).

Entries after “also recorded” stand apart in the source; their conditions may differ.

Assay [1] relates to human topoisomerase II. The assay is described as follows: TOP2 DNA relaxation / plasmid linearization assay. The assay is classed as biochemical. Particulars: 20 μM. As for the experimental part: The ability to relax DNA conformations is a central function of topoisomerase enzymes. Several studies have associated some proapoptotic compounds with the ability to inhibit topoisomerase enzymes. The ability of the selected compounds to inhibit TOP1 or TOP2 activity was determined. In this experiment, daunorubicin was used as a positive control for TOP1/2 inhibition, as previously reported. […] It is important to note the potential for cardiotoxicity associated with some TOP2 inhibitors, which highlights the relevance of assessing compound 14c’s interaction with TOP2B. […] Future studies should include assays to evaluate the specific activity of 14c against both TOP2A and TOP2B to provide a more comprehensive safety profile, as isoform-selective TOP2 inhibitors may offer a therapeutic advantage by reducing adverse effects.
Topoisomerase II-mediated DNA cleavage was assessed using a plasmid linearization assay adapted from previously described methods. Supercoiled plasmid DNA (200 ng final concentration) was incubated with purified human topoisomerase II (10 U) in the presence or absence of test agents or a positive control. Reactions were carried out in a total volume of 20 μL, composed of 2 μL of 10× topoisomerase II reaction buffer, an appropriate volume of compound or control, and nuclease-free water. ATP (final concentration adjusted from a 20 mM stock) was freshly added to the reaction buffer immediately prior to use. Reactions were initiated by the addition of topoisomerase II and incubated at 37 °C for 30 min. To terminate the reactions, 2 μL of 10% SDS was added directly to the tubes while still in the 37 °C water bath, followed by the addition of 1.5 μL of 250 mM tetrasodium EDTA (pH 8.0) and 2 μL of proteinase K solution (0.8 mg/mL). […]
Figure 7 The effect of sesquiterpene aryl esters on TOP1- and TOP2-induced DNA relaxation was assessed. (A) The TOP1 inhibition assay evaluated the compounds (10c, 11c, 12c, 13c, and 14c) at a concentration of 20 μM in a DNA relaxation assay. […]

In assay [2] the test system is MCF-10 cells. Briefly: MTT cytotoxicity assay on non-tumoral MCF-10 cells. The assay is classed as cell-based, human. The following applies: Homo sapiens, MCF10, 48 h incubation, IC50 ± SD, three experiments in triplicate. As for the experimental part:
In this study, we wondered whether semi-synthetic compounds have potential antitumoral properties against BC. Therefore, we were interested in investigating the effect of the compounds on the MCF-7 cell line. Firstly, we studied the effect on cell viability using a colorimetric MTT assay, which was performed to quantify the cytotoxic activity; each compound was evaluated at different concentrations (500−100−20−4−0.8−0.16−0.032−0 µM). Daunorubicin was also used as a positive control for comparison with a reference drug. […] Although the MCF-10 cell line provides a useful selectivity model, it may not fully represent the varying sensitivities of different normal cell types within a multicellular organism. The SI value indicates the ratio of toxicity in mammalian host cells to that in a tumoral cell. The data obtained in response to different concentrations of compounds were used to calculate the IC50 and corresponding SI values, as shown in Table 1.
The American Type Culture Collection (Rockville, MD, USA) supplied the following experimental cell lines: MCF-7, a human breast cancer cell line, and MCF-10A, a human epithelial breast cell line (ATCC N° CRL-10317). Both cell lines were grown in DMEM-F12 medium containing 10% FCS, 100 U/mL penicillin, 100 μg/mL streptomycin, and 1 mM glutamine. The cells were seeded at a concentration of 100 μL per well at a plating density of 3 × 10^3 cells/well and incubated for 24 h at 37 °C under 5% humidified CO2 to enable attachment. The cells were then treated with varying concentrations of synthesized compounds for […] under the same conditions. The compound stock solution was prepared in DMSO, and the final concentration of DMSO was kept at 0.1%. Control cultures were treated with only 1% ethanol.
Cells from the MCF-7 and MCF-10 lines were seeded into 96-well plates at a density of 1 × 10^4 per well. After 24 h, the compounds were added at increasing concentrations (500–100–20-4–0.8–0.16–0.032–0 µM), and the cells were incubated at 37 °C in a humidified 5% CO2/95% air mixture for 48 h. Following incubation, the cells were washed twice with PBS, and 100 μL of 0.5 mg/mL MTT solution was added to each well. After 2 h of incubation, the MTT solution was removed, and the formazan crystals were dissolved in 50 μL of DMSO per well. Absorbance was then measured at 570 nm using a microplate ELISA reader. IC50 values, determined from three independent experiments conducted in triplicate, were calculated using SigmaPlot® software (version 11.0). The selectivity index (SI) of each compound in each cell line was determined by calculating the ratio of the IC50 values for MCF-10 and cancer cell lines. Compounds were considered selective if SI values were equal to or greater than 3 [46].
In general terms: Tetrazolium dyes change colour on reduction, which living cells bring about.

Assay [3] deals with MCF-7 cells. The assay is described as follows: MTT cytotoxicity assay on MCF-7 cells. The assay is classed as cell-based, human. The following applies: for IC50: Homo sapiens, MCF7, MTT, 48 h incubation, IC50 ± SD, three experiments in triplicate; for Selectivity Index (SI): SI = IC50 on MCF-10 cells/IC50 on MCF-7 cells.

In general, IC50 refers to the concentration at which inhibition is half-maximal. Read a high IC50 as lower potency. `COc1ccc(/C=C2\C(C)=CCC3C(C)(C)CCC[C@]23C)cc1OC` (stereo partly drawn) [Compound 13c, (4aS)-5-((E)-3,4-Dimethoxybenzylidene)-1,1,4a,6-tetramethyl-1,2,3,4,4a,5,8,8a-octahydronaphthalene]: the “inhibition of TOP2-induced DNA relaxation” value in assay [1] was “no inhibition”. Also, it took 135 ± 26.6 µM to reach half-maximal inhibition in assay [2] (IC50). Also, in assay [3], the IC50 stood at 22.5 ± 2.6 µM and the “Selectivity Index (SI)” value turned out to be 6.0.

For `COc1cc2c(cc1OC)[C@]1(C)CCC3C(C)(C)CCC[C@]3(C)C1=C2` (stereo partly drawn) [Compound 14c, (6aR,11bS)-8,9-Dimethoxy-4,4,6a,11b-tetramethyl-2,3,4,4a,5,6,6a,11b-octahydro-1H-benzo[a]fluorene], the “inhibition of TOP2-induced DNA relaxation” value in assay [1] is given as “selectively inhibited topoisomerase II; also recorded: modified the TOP2-induced DNA relaxation pattern”. This molecule also returned an IC50 in assay [2] of 393 ± 47.1 µM. In addition, in assay [3], it took 9 ± 2.8 µM to reach half-maximal inhibition (IC50) and the “Selectivity Index (SI)” value was 44.
